{"source": "PubChem BioAssay AID1963442", "about": "(Molecular Pharmacology Branch, DTP, NCI, 2024)", "system": "MPNST complex spheroid with HUVEC/MSC, growth, % test/control", "assay": "Anticancer human tumor MPNST cell line growth inhibition [Asc];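 further: compounds left on spheroids for seven days before reading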", "conditions": "for viability, T/C: stronger effect = lower value", "method_in_brief": "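Tumor cells were grown as multicellular spheroids with stromal HUVEC and mesenchymal stem cells and treated singly or in combination. Concentrations fell in half-log steps from the clinical Cmax, or from 10 microM where none was known.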", "note": "Where “and” joins values, the source holds several entries; their conditions need not be identical. Equal entries are not always repeated.", "data": [{"smiles": "Cc1nc(N2CCC3(CC2)COC(C)C3N)c(CO)nc1Sc1ccnc(N)c1Cl", "note": "(stereo not given) + CNC(C)C(=O)NC1CN(S(=O)(=O)c2cccc(S(=O)(=O)N3CCC4CCC(C(=O)NC(c5ccccc5)c5ccccc5)N4C(=O)C(NC(=O)C(C)NC)C3)c2)CCC2CCC(C(=O)NC(c3ccccc3)c3ccccc3)N2C1=O", "values": [{"measurement": "IC50", "setting": "curve of first compound, second compound 0.00316 µM", "value": 105, "unit": "nM"}, {"measurement": "IC50", "setting": "curve of first compound, second compound 0.01 µM", "value": 125, "unit": "nM"}, {"measurement": "IC50", "setting": "curve of first compound, second compound 0.0316 µM", "value": 119, "unit": "nM"}, {"measurement": "IC50", "setting": "curve of first compound, second compound 0.1 µM", "value": 157, "unit": "nM"}, {"measurement": "IC50", "setting": "curve of first compound, second compound 0.316 µM", "value": 647, "unit": "nM"}, {"measurement": "IC50", "setting": "curve of first compound, second compound 1 µM", "value": 300, "unit": "nM"}, {"measurement": "viability, T/C", "setting": "second compound 0.00316 µM, first compound 0.00949 µM", "value": 90.5, "unit": "%"}, {"measurement": "viability, T/C", "setting": "second compound 0.00316 µM, first compound 0.03 µM", "value": 56.4, "unit": "%"}, {"measurement": "viability, T/C", "setting": "second compound 0.00316 µM, first compound 0.0949 µM", "value": 57, "unit": "%"}, {"measurement": "viability, T/C", "setting": "second compound 0.00316 µM, first compound 0.3 µM", "value": 41.5, "unit": "%"}, {"measurement": "viability, T/C", "setting": "second compound 0.00316 µM, first compound 0.949 µM", "value": 62.1, "unit": "%"}, {"measurement": "viability, T/C", "setting": "second compound 0.00316 µM, first compound 3 µM", "value": 30.6, "unit": "%"}, {"measurement": "viability, T/C", "setting": "second compound 0.01 µM, first compound 0.00949 µM", "value": 103, "unit": "%"}, {"measurement": "viability, T/C", "setting": "second compound 0.01 µM, first compound 0.03 µM", "value": 54, "unit": "%"}, {"measurement": "viability, T/C", "setting": "second compound 0.01 µM, first compound 0.0949 µM", "value": 60.7, "unit": "%"}, {"measurement": "viability, T/C", "setting": "second compound 0.01 µM, first compound 0.3 µM", "value": 51.6, "unit": "%"}, {"measurement": "viability, T/C", "setting": "second compound 0.01 µM, first compound 0.949 µM", "value": 39.5, "unit": "%"}, {"measurement": "viability, T/C", "setting": "second compound 0.01 µM, first compound 3 µM", "value": 25, "unit": "%"}, {"measurement": "viability, T/C", "setting": "second compound 0.0316 µM, first compound 0.00949 µM", "value": 114, "unit": "%"}, {"measurement": "viability, T/C", "setting": "second compound 0.0316 µM, first compound 0.03 µM", "value": 59.2, "unit": "%"}, {"measurement": "viability, T/C", "setting": "second compound 0.0316 µM, first compound 0.0949 µM", "value": 65.9, "unit": "%"}, {"measurement": "viability, T/C", "setting": "second compound 0.0316 µM, first compound 0.3 µM", "value": 40.1, "unit": "%"}, {"measurement": "viability, T/C", "setting": "second compound 0.0316 µM, first compound 0.949 µM", "value": 42.8, "unit": "%"}, {"measurement": "viability, T/C", "setting": "second compound 0.0316 µM, first compound 3 µM", "value": 40, "unit": "%"}, {"measurement": "viability, T/C", "setting": "second compound 0.1 µM, first compound 0.00949 µM", "value": 68.9, "unit": "%"}, {"measurement": "viability, T/C", "setting": "second compound 0.1 µM, first compound 0.03 µM", "value": 66.1, "unit": "%"}, {"measurement": "viability, T/C", "setting": "second compound 0.1 µM, first compound 0.0949 µM", "value": 52.5, "unit": "%"}, {"measurement": "viability, T/C", "setting": "second compound 0.1 µM, first compound 0.3 µM", "value": 45.8, "unit": "%"}, {"measurement": "viability, T/C", "setting": "second compound 0.1 µM, first compound 0.949 µM", "value": 32.6, "unit": "%"}, {"measurement": "viability, T/C", "setting": "second compound 0.1 µM, first compound 3 µM", "value": 28.8, "unit": "%"}, {"measurement": "viability, T/C", "setting": "second compound 0.316 µM, first compound 0.00949 µM", "value": 60.8, "unit": "%"}, {"measurement": "viability, T/C", "setting": "second compound 0.316 µM, first compound 0.03 µM", "value": 80.8, "unit": "%"}, {"measurement": "viability, T/C", "setting": "second compound 0.316 µM, first compound 0.0949 µM", "value": 60.3, "unit": "%"}, {"measurement": "viability, T/C", "setting": "second compound 0.316 µM, first compound 0.3 µM", "value": 57.4, "unit": "%"}, {"measurement": "viability, T/C", "setting": "second compound 0.316 µM, first compound 0.949 µM", "value": 47, "unit": "%"}, {"measurement": "viability, T/C", "setting": "second compound 0.316 µM, first compound 3 µM", "value": 31.7, "unit": "%"}, {"measurement": "viability, T/C", "setting": "second compound 1 µM, first compound 0.00949 µM", "value": 71.5, "unit": "%"}, {"measurement": "viability, T/C", "setting": "second compound 1 µM, first compound 0.03 µM", "value": 67.8, "unit": "%"}, {"measurement": "viability, T/C", "setting": "second compound 1 µM, first compound 0.0949 µM", "value": 49.9, "unit": "%"}, {"measurement": "viability, T/C", "setting": "second compound 1 µM, first compound 0.3 µM", "value": 48.1, "unit": "%"}, {"measurement": "viability, T/C", "setting": "second compound 1 µM, first compound 0.949 µM", "value": 52.9, "unit": "%"}, {"measurement": "viability, T/C", "setting": "second compound 1 µM, first compound 3 µM", "value": 28.6, "unit": "%"}]}, {"smiles": "CCN1C(C(=O)NC23CCC(C(=O)O)(CC2)CC3)C(c2cccc(Cl)c2F)C2(C(=O)Nc3cc(Cl)ccc32)C12CCCCC2", "note": "(stereo not given)", "values": [{"measurement": "viability, T/C", "setting": "compound 0.00949 µM", "value": "86.6% and 74.5%"}, {"measurement": "IC50", "setting": "compound alone, run of 10/11/2022", "value": "> 3000", "unit": "nM"}, {"measurement": "IC50", "setting": "curve of compound", "value": "1810 nM and > 3000 nM"}]}]}
